From US20120289517A1, “SOLID PHARMACEUTICAL COMPOSITION FOR ORAL ADMINISTRATION” (Kowa Co., Ltd., priority 2009, published 2012) come the findings set out here.

One series in a line: Solubility in water. Format: physicochemical.
The nature of series [1]: Dissolution test (paddle method, Japanese Pharmacopoeia). The note with it: summary of Test Example 1. Format: physicochemical. On the procedure:
Thus, the concentrations of the compound a after 5, 10, 15, 30, 45 and 60 minutes were measured. The sample solution collected at each time point was filtered through a membrane filter made of PTFE (DISMIC-25HP manufactured by Toyo Roshi Kaisha, Ltd.) having a pore size of 0.45 μm, and was analyzed by a high performance liquid chromatographic method using a reversed phase column (manufactured by Nomura Chemical Co., Ltd.; Develosil ODS-HG-5). Thus, the dissolution rates were calculated.

Turning to `CSc1cc(C)nc(SC)c1NC(=O)CN1CCN(CCSc2nc3ccccc3[nH]2)CC1` [compound a, 2-[4-[2-(Benzimidazol-2-ylthio)ethyl]piperazin-1-yl]-N-[2,4-bis(methylthio)-6-methyl-3-pyridyl]acetamide], the solubility in water in the series “Solubility in water” is 0.05 % (W/V). Further, the “dissolubility, result in words” value in series [1] is reported as “hardly dissolved”.
